In patent publication US5041432A, “Steroid derivatives useful as hypocholesterolemics” (E. I. Du Pont de Nemours and Company, priority 1990, dated 1991):
Values belong to the molecule of their own block, whether it stands above or below them.

Tests used:
[1] = biological target: T1, Lanosta-8,24-dien-3β-ol 14α-methyl demethylase (Rattus norvegicus, UniProt Q64654); assay: Lanosta-8,24-dien-3β-ol 14α-Methyl Demethylase Inhibition Assay; assay type: biochemical
T1 construct: rat hepatic microsomal preparations; from tissue; host or cells: rat liver microsomes
T1 sequence (Q64654 1-503): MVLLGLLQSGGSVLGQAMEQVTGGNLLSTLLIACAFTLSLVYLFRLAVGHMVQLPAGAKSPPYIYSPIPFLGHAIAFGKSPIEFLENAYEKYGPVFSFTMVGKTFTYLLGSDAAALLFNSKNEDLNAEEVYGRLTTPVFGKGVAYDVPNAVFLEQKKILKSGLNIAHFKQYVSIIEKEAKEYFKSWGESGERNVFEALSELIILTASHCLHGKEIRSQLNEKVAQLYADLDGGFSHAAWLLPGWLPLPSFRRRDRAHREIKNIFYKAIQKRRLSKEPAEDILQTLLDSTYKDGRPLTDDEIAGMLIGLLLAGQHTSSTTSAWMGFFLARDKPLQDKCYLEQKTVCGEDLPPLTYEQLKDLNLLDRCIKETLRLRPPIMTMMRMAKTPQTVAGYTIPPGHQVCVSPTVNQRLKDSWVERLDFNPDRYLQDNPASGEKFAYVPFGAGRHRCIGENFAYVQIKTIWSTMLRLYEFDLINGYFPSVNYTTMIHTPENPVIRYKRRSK
Description: B. Lanosta-8,24-dien-3β-ol 14α-Methyl Demethylase Inhibition Assay
Lanosta-8,24-dien-3β-ol 14α-methyl demethylase activity was determined in rat hepatic microsomal preparations as described in Trzaskos et al., J. Biol. Chem., 261, 16937-16942 (1986). Specifically, test compounds were added to assay mixtures as detergent suspensions with substrate employing 5 mg Triton WR-1339, 100 μM lanost-8-en-3β-ol substrate, and test compounds ranging from 0 to 100 μM. The inhibitor/substrate/detergent suspension was incubated with 2 mg microsomal protein for 5 min at 37° followed by a 10 min incubation initiated by the addition of cofactors required for the reaction. […] Inhibition values are expressed as the amount of compound required to inhibit lanosta-8,24-dien-3β-ol 14α-methyldemethylase activity by 50% relative to that of the controls.

[2] = system: de novo cholesterol synthesis; assay: Decreasing de novo cholesterol synthesis (radiolabeled acetate incorporation into cholesterol in CHO cells); assay type: cell-based, Chinese Hamster (CHO cells); conditions: Cricetulus griseus, 19 h, % of control culture (Control = 100)
Description: The ability of the compounds of Formula I to decrease de novo cholesterol synthesis was tested by measuring the incorporation of radiolabeled acetate into cholesterol synthesized in CHO cells. To conduct this experiment, CHO cells were plated at 0.3×10^6 cells per 15×60 mm tissue culture dish in 5 mL of McCoy's modified medium (Gibco Laboratories) containing 1% Cab-O-Sil delipidated FBS and incubated for 48 hours at 37° in a 5% CO2, 95% air environment. Test compounds in a 2.5% suspension of BSA (fatty acid free) in ethanol were then added to the cultures such that the final ethanol and BSA concentrations were 0.5% and 2.5%, respectively. Control cultures received ethanol and BSA alone. […]
The cells were harvested by washing the cells twice with 5 mL of cold PBS and scraping the cells into 1 mL PBS. […] The petroleum ether fractions were dried under nitrogen, resuspended in ethanol, counted and analyzed by reverse phase HPLC at 45° using an Ultrashpere Octyl column (from Altex Scientific Inc., Berkeley, Calif.) with a mobile phase of acetonitrile:methanol:water (44:44:12). The amount of cholesterol synthesis is measured by the amount of radiolabeled acetate incorporated into the cholesterol peak. The percent of cholesterol synthesis in the treated culture is calculated based upon the control culture.

[3] = system: 3-Hydroxy-3-Methylglutaryl Coenzyme A Reductase (HMGR); assay: HMGR Suppression Assay (HMGR activity in digitonin-permeabilized CHO cells); assay type: cell-based, Chinese Hamster (CHO cells); conditions: tested under the same conditions as Table I
Description: The ability of the compounds of Formula I to suppress the activity of HMGR, the rate limiting enzyme of cholesterol biosynthesis, was tested as follows. Chinese Hamster Ovary (CHO) cells were divided twice weekly and were maintained in McCoy's 5A medium supplemented with 1% Cab-O-Sil delipidated Fetal Bovine Serum (FBS) (obtained from Gibco Laboratories, Chagrin Falls, Ohio). […] Control cells were treated in an identical fashion to those which received test compound, except they were incubated with the BSA and ethanol suspension only.
Specifically, the medium in each well was aspirated and the cells rinsed with a 50 mM solution of phosphate buffered saline (PBS). One mL of 30 μg/mL of digitonin in CSK buffer (prepared using 10 mM Pipes [piperazine-N,N'-bis(2-ethansulfonic)acid'], 100 mM KCl, 2.5 mM MgCl2, 300 mM sucrose, 1 mM EGTA, pH 6.8) was added to each well and incubated for 10 min at 22° to permeabilize the cells. […] HMGR activity was measured directly by adding 75 μL of PIB buffer (50 mM potassium phosphate, 1 mM Na2 EDTA, 10 mM dithiothreitol, pH 7.4) to each well and incubating the cells for 30 minutes at 37° as described above. […] The assay mixture was incubated for 30 min at 37° and terminated by the addition of 70 μL of [^3 H]-mevalonic acid (35,000 DPM/assay), 0.15 mg/mL in 3 N HCl. The reaction was left to lactonize for an additional 30 min at 37° or overnight at room temperature.
Reaction products were separated by thin layer chromatography on silica gel G (obtained from Analtech, Newark, Del.) developed in an unsaturated environment with acetone:benzene (3:2, v:v). The band corresponding to mevalonolactone was identified by exposure to iodine vapor and was scraped into counting vials. […] Corrections for recovery and blank values were made for each sample. […] Cellular protein was solubilized from culture dishes by the addition of 20 μL of 16 N KOH and assayed directly for protein amount. Suppression values are expressed as the amount of compound required to suppress HMGR activity by 50% relative to that of the controls.

Structure (SMILES): C=CC(O)[C@@]12CC[C@H]([C@H](C)CCCC(C)C)[C@@]1(C)CCC1=C2CC[C@H]2C(C)(C)[C@@H](O)CC[C@]12C (single isomer, unassigned) [Compound 11a, 4,4-dimethyl-14α-(1'-hydroxy-2'-propenyl)-5α-cholest-8-en-3β-ol]
IC50 ([1]; rat hepatic microsomes, 100 μM lanost-8-en-3β-ol substrate, test compounds 0 to 100 μM): 800 nM | activity at 1 µM [2]: 1%

effect on lanosta-8,24-dien-3β-ol 14α-methyl demethylase activity ([1]; tested under the same conditions as Table I): without effect
Structure (SMILES): CC(C)CCC[C@@H](C)[C@H]1CC[C@H]2[C@@H]3CC=C4C[C@@H](O)CC[C@]4(C)[C@H]3CC[C@]12C [cholesterol]
effect on measured HMGR activity [3]: without effect

Structure (SMILES): CC(C)CCC[C@@H](C)[C@H]1CC[C@@]2(C)C3=C(CC[C@]12C)[C@@]1(C)CC[C@H](O)C(C)(C)[C@@H]1CC3 [lanost-8-en3β-ol, lanost-8-en-3β-ol]
substrate for the demethylase enzyme [1]: clearly served as substrates | effect on measured HMGR activity [3]: without effect

Structure (SMILES): CC(C)=CCC[C@@H](C)[C@H]1CC[C@@]2(C)C3=C(CC[C@]12C)[C@@]1(C)CC[C@H](O)C(C)(C)[C@@H]1CC3 [lanosta-8,24-dien-3β-ol]
substrate for the demethylase enzyme [1]: clearly served as substrates | effect on measured HMGR activity [3]: without effect
